This is an account of results in patent US20230339981A1, “KRAS G12D MODULATING COMPOUNDS” (priority 2022, published 2023).

Assay [1] deals with GDP-loaded KRAS G12D (Homo sapiens (Human), UniProt P01116, G12D). The assay is described as follows: KRAS G12D (GDP) biochemical assay (TR-FRET probe displacement). Type of assay: binding. Conditions: 2 hours. The method, then:
Example A. KRAS G12D (GDP) Biochemical Assay
Compounds were tested for binding to GDP-loaded KRAS G12D in a 384-well assay format using a TR-FRET probe displacement assay in buffer consisting of 50 mM Hepes (pH 7.4), 150 mM NaCl, 5 mM MgCl2 and 0.005% Tween-20. […] Compounds were serially diluted (1:3) in DMSO. The LabCyte ECHO Acoustic dispenser system was used to pre-spot the assay plates (384-well Non-Binding Surface plates, Corning, Catalog #3824) with 50 nL of compound. The compounds were pre-incubated with 5 μL of 2× final enzyme concentration for 30 minutes before adding 5 μL of 2× final concentration of Eu-streptavidin and TR-FRET probe (10 μL final reaction volume). The plates were incubated at room temperature for 2 hours before measuring TR-FRET ratio on the Envision plate reader. IC50 values were defined as the compound concentration that causes a 50% decrease in TR-FRET ratio and were calculated using a sigmoidal dose-response model to generate curve fits.
On the technique in general: TR-FRET usually uses a lanthanide donor and a delayed reading to cut background.

Assay [2] concerns GP2D (KRAS G12D) cells. The assay is described as follows: 2D cell viability assay (CellTiter-Glo). Conditions: GP2d, 96 h, 4 days. Type of assay: cell-based. The procedure:
Example B. 2D Cell Viability Assay
Compounds were tested in a 384-well format for their ability to inhibit the viability of GP2D (KRAS G12D) cells in 2D assays. Compounds were serially diluted (1:3) in DMSO. The LabCyte ECHO Acoustic dispenser system was used to pre-spot assay plates with 200 nL of test molecule per well. 1000 cells/well (40 μL volume per well) in RPMI medium with 10% FBS, and Penicillin-Streptomycin-Glutamine were plated in pre-spotted 384-well plates (Greiner, Catalog #781076) on the BioTEK EL406 liquid dispenser with a 5 μL dispensing cassette (BioTek 7170011). The plates were incubated at 37° C., 5% CO2 for 4 days before addition of CellTiter-Glo (CTG) reagent and measurement of luminescence signal. EC50 values were defined as the compound concentration that causes a 50% decrease in luminescence signal and were calculated using a sigmoidal dose-response model to generate curve fits.
On the technique in general: In ATP-based viability assays light output follows the ATP content of the culture.

The term IC50 denotes the midpoint of a concentration-inhibition curve. High values mean lower potency, low ones higher potency. The EC50 is the concentration at which the effect is half-maximal. A low value points to a more potent agent.

GDP-loaded KRAS G12D, sequence (P01116-2 other isoform, or with tags, fused parts or gaps G12D): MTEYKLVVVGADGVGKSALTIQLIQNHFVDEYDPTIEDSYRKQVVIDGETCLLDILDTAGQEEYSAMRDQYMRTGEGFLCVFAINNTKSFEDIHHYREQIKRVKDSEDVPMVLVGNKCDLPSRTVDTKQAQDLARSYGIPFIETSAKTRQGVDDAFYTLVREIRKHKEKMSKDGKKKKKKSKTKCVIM

For `C#Cc1c(F)ccc2cccc(-c3nc4c5c(nc(OC[C@@]67CCCN6C[C@@H](OC(C(F)(F)F)(C(F)(F)F)C(F)(F)F)C7)nc5c3F)N3C[C@H]5CC[C@H](N5)[C@H]3CC4)c12` (stereo in doubt) [Example 135, (5aR,6S,9R)-2-(8-ethynyl-7-fluoronaphthalen-1-yl)-1-fluoro-12-((cis-2-((1,1,1,3,3,3-hexafluoro-2-(trifluoromethyl)propan-2-yl)oxy)tetrahydro-1H-pyrrolizin-7a(5H)-yl)methoxy)-4,5,5a,6,7,8,9,10-octahydro-3,10a,11,13,14-pentaaza-6,9-methanonaphtho[1,8-ab]heptalene], in assay [1], the concentration for half-maximal inhibition (IC50) is 0.0881 µM. In addition, the midpoint of the response in assay [2], the EC50, lay at 0.1 µM.
`C#Cc1c(F)ccc2cccc(-c3nc4c5c(nc(OC[C@]67CCCN6C[C@@H](OC(F)(F)F)C7)nc5c3F)N3C[C@H]5CC[C@H](N5)[C@H]3CC4)c12` (stereo in doubt) [Example 142, (5aR,6S,9R)-2-(8-ethynyl-7-fluoronaphthalen-1-yl)-1-fluoro-12-((trans-2-(trifluoromethoxy)tetrahydro-1H-pyrrolizin-7a(5H)-yl)methoxy)-4,5,5a,6,7,8,9,10-octahydro-3,10a,11,13,14-pentaaza-6,9-methanonaphtho[1,8-ab]heptalene]: the concentration for half-maximal inhibition (IC50) in assay [1] came to 0.0036 µM. The compound also came in with a concentration for a half-maximal effect (EC50) in assay [2] of 0.0948 µM.
In the case of `Oc1cc(-c2nc3c4c(nc(OC[C@@]56CCCN5C[C@H](F)C6)nc4c2F)N2C[C@H]4CC[C@H](N4)[C@H]2CO3)c2c(F)cccc2c1` [Example 5, 5-fluoro-4-((5aS,6S,9R)-1-fluoro-12-(((2R,7aS)-2-fluorotetrahydro-1H-pyrrolizin-7a(5H)-yl)methoxy)-5a,6,7,8,9,10-hexahydro-5H-4-oxa-3,10a,11,13,14-pentaaza-6,9-methanonaphtho[1,8-ab]heptalen-2-yl)naphthalen-2-ol], the IC50 in assay [1] came out at 0.003 µM. Besides, the EC50 in assay [2] turned out to be 0.25 µM.
In turn, `Oc1cc(-c2nc3c4c(nc(OC[C@@]56CCCN5C[C@H](F)C6)nc4c2F)N2C[C@H]4CC[C@H](N4)[C@H]2CO3)c2c(F)c(Cl)ccc2c1` [Example 6, 6-chloro-5-fluoro-4-((5aS,6S,9R)-1-fluoro-12-(((2R,7aS)-2-fluorotetrahydro-1H-pyrrolizin-7a(5H)-yl)methoxy)-5a,6,7,8,9,10-hexahydro-5H-4-oxa-3,10a,11,13,14-pentaaza-6,9-methanonaphtho[1,8-ab]heptalen-2-yl)naphthalen-2-ol] yielded an IC50 in assay [1] of 0.002 µM. In assay [2], this compound returned an EC50 of 0.07 µM.
In the same order, the values of `Oc1cc(-c2nc3c4c(nc(OC[C@@]56CCCN5C[C@H](F)C6)nc4c2F)N2C[C@H]4CC[C@H](N4)[C@H]2CO3)c2c(OC(F)(F)F)c(F)ccc2c1` [Example 7, 6-fluoro-4-((5aS,6S,9R)-1-fluoro-12-(((2R,7aS)-2-fluorotetrahydro-1H-pyrrolizin-7a(5H)-yl)methoxy)-5a,6,7,8,9,10-hexahydro-5H-4-oxa-3,10a,11,13,14-pentaaza-6,9-methanonaphtho[1,8-ab]heptalen-2-yl)-5-(trifluoromethoxy)naphthalen-2-ol] are 0.0006 µM and 0.016 µM.
For `Oc1cc(-c2nc3c4c(nc(OC[C@@]56CCCN5C[C@H](F)C6)nc4c2F)N2C[C@H]4CC[C@H](N4)[C@H]2CO3)c2cc(F)ccc2c1` [Example 8, 6-fluoro-4-((5aS,6S,9R)-1-fluoro-12-(((2R,7aS)-2-fluorotetrahydro-1H-pyrrolizin-7a(5H)-yl)methoxy)-5a,6,7,8,9,10-hexahydro-5H-4-oxa-3,10a,11,13,14-pentaaza-6,9-methanonaphtho[1,8-ab]heptalen-2-yl)naphthalen-2-ol], in that order: 0.002 µM and 0.054 µM.
In the same order, the values of `Oc1cc(-c2nc3c4c(nc(OC[C@@]56CCCN5C[C@H](F)C6)nc4c2F)N2C[C@H]4CC[C@H](N4)[C@H]2CO3)c2c(C=C(F)F)c(F)ccc2c1` [Example 10, 5-(2,2-difluorovinyl)-6-fluoro-4-((5aS,6S,9R)-1-fluoro-12-(((2R,7aS)-2-fluorotetrahydro-1H-pyrrolizin-7a(5H)-yl)methoxy)-5a,6,7,8,9,10-hexahydro-5H-4-oxa-3,10a,11,13,14-pentaaza-6,9-methanonaphtho[1,8-ab]heptalen-2-yl)naphthalen-2-ol] are 0.018 µM and 0.25 µM.
`Oc1cc(-c2nc3c4c(nc(OC[C@@]56CCCN5C[C@H](F)C6)nc4c2F)N2C[C@H]4CC[C@H](N4)[C@H]2CO3)c2c(F)c(F)c(F)cc2c1` [Example 11, 5,6,7-trifluoro-4-((5aS,6S,9R)-1-fluoro-12-(((2R,7aS)-2-fluorotetrahydro-1H-pyrrolizin-7a(5H)-yl)methoxy)-5a,6,7,8,9,10-hexahydro-5H-4-oxa-3,10a,11,13,14-pentaaza-6,9-methanonaphtho[1,8-ab]heptalen-2-yl)naphthalen-2-ol] had a half-inhibitory concentration (IC50) in assay [1] of 0.001 µM. Further, in assay [2], the concentration for a half-maximal effect (EC50) is 0.056 µM.
`Oc1cc(-c2nc3c4c(nc(OC[C@@]56CCCN5C[C@H](F)C6)nc4c2F)N2C[C@H]4CC[C@H](N4)[C@H]2CO3)c2c(F)c(F)c(F)c(F)c2c1` [Example 12, 5,6,7,8-tetrafluoro-4-((5aS,6S,9R)-1-fluoro-12-(((2R,7aS)-2-fluorotetrahydro-1H-pyrrolizin-7a(5H)-yl)methoxy)-5a,6,7,8,9,10-hexahydro-5H-4-oxa-3,10a,11,13,14-pentaaza-6,9-methanonaphtho[1,8-ab]heptalen-2-yl)naphthalen-2-ol] yielded a half-maximal inhibitory concentration (IC50) in assay [1] of 0.006 µM. This compound also came in with a half-maximal effective concentration (EC50) in assay [2] of 0.13 µM.
As for `Oc1cc(-c2nc3c4c(nc(OC[C@@]56CCCN5C[C@H](F)C6)nc4c2F)N2C[C@H]4CC[C@H](N4)[C@H]2CO3)c2c(CC3CC3)c(F)ccc2c1` [Example 14, 5-(cyclopropylmethyl)-6-fluoro-4-((5aS,6S,9R)-1-fluoro-12-(((2R,7aS)-2-fluorotetrahydro-1H-pyrrolizin-7a(5H)-yl)methoxy)-5a,6,7,8,9,10-hexahydro-5H-4-oxa-3,10a,11,13,14-pentaaza-6,9-methanonaphtho[1,8-ab]heptalen-2-yl)naphthalen-2-ol], in assay [1], the IC50 was 0.034 µM. In assay [2], this compound showed an EC50 of 0.53 µM.
Compound `Oc1cc(-c2nc3c4c(nc(OC[C@@]56CCCN5C[C@H](F)C6)nc4c2F)N2C[C@H]4CC[C@H](N4)[C@@H]2CO3)c2ccccc2c1` [Example 19, 4-((5aR,6S,9R)-1-fluoro-12-(((2R,7aS)-2-fluorotetrahydro-1H-pyrrolizin-7a(5H)-yl)methoxy)-5a,6,7,8,9,10-hexahydro-5H-4-oxa-3,10a,11,13,14-pentaaza-6,9-methanonaphtho[1,8-ab]heptalen-2-yl)naphthalen-2-ol] registered an IC50 in assay [1] of 0.59 µM. In assay [2], this compound gave a concentration for a half-maximal effect (EC50) of 3.3 µM.
In the same order, the values of `C#Cc1c(F)ccc2cc(O)cc(-c3nc4c5c(nc(OCC6(CN7CCOCC7)CC6)nc5c3F)N3C[C@H]5CC[C@H](N5)[C@H]3CO4)c12` [Example 28, 5-ethynyl-6-fluoro-4-((5aS,6S,9R)-1-fluoro-12-((1-(morpholinomethyl)cyclopropyl)methoxy)-5a,6,7,8,9,10-hexahydro-5H-4-oxa-3,10a,11,13,14-pentaaza-6,9-methanonaphtho[1,8-ab]heptalen-2-yl)naphthalen-2-ol] are 0.0006 µM and 0.007 µM.
For `Fc1cccc2c(-c3nc4c5c(nc(OC[C@@]67CCCN6C[C@H](F)C7)nc5c3F)N3C[C@H]5CC[C@H](N5)[C@H]3CO4)cccc12` [Example 31, (5aS,6S,9R)-1-fluoro-2-(5-fluoronaphthalen-1-yl)-12-(((2R,7aS)-2-fluorotetrahydro-1H-pyrrolizin-7a(5H)-yl)methoxy)-5a,6,7,8,9,10-hexahydro-5H-4-oxa-3,10a,11,13,14-pentaaza-6,9-methanonaphtho[1,8-ab]heptalene], in that order: 4.9 µM and more than 1 µM.
Compound `C#Cc1c(F)ccc2cc(O)cc(-c3nc4c5c(nc(OCC6(CN7CCC(F)CC7)CC6)nc5c3F)N3C[C@H]5CC[C@H](N5)[C@H]3CO4)c12` [Example 32, 5-ethynyl-6-fluoro-4-((5aS,6S,9R)-1-fluoro-12-((1-((4-fluoropiperidin-1-yl)methyl)cyclopropyl)methoxy)-5a,6,7,8,9,10-hexahydro-5H-4-oxa-3,10a,11,13,14-pentaaza-6,9-methanonaphtho[1,8-ab]heptalen-2-yl)naphthalen-2-ol] displayed an IC50 in assay [1] of 0.0002 µM. In assay [2], this compound had an EC50 of 0.002 µM.
`C#Cc1c(F)ccc2cc(O)cc(-c3nc4c5c(nc(OCC6(CN7CCC[C@H](F)C7)CC6)nc5c3F)N3C[C@H]5CC[C@H](N5)[C@H]3CO4)c12` [Example 33, 5-ethynyl-6-fluoro-4-((5aS,6S,9R)-1-fluoro-12-((1-(((S)-3-fluoropiperidin-1-yl)methyl)cyclopropyl)methoxy)-5a,6,7,8,9,10-hexahydro-5H-4-oxa-3,10a,11,13,14-pentaaza-6,9-methanonaphtho[1,8-ab]heptalen-2-yl)naphthalen-2-ol] returned an IC50 in assay [1] of 0.0003 µM. Further, the EC50 in assay [2] worked out at 0.003 µM.
